Experimental data from patent publication EP1146864B1, “PH INDEPENDENT EXTENDED RELEASE PHARMACEUTICAL FORMULATION” (ABBOTT LABORATORIES, priority 1999, dated 2000).

Columns and labels:
[1] = in children; cited from earlier work

| solubility (physchem; pH 1, simulated gastric fluid) | solubility (physchem; pH 4.7, aqueous buffer) | solubility (physchem; pH 4.84, aqueous buffer) | solubility (physchem; pH 5.87, aqueous buffer) | solubility (physchem; pH 6.17, aqueous buffer) | solubility (physchem; pH 6.7, aqueous buffer) | Compound | elimination half-life [1] |
| --- | --- | --- | --- | --- | --- | --- | --- |
| – | – | – | – | – | – | CCCC(CCC)C(=O)O [valproic acid, 2-propylpentanoic acid] | four and fourteen |
| 1 mg/mL | 2 mg/mL | 3.4 mg/mL | 21 mg/mL | 36 mg/mL | 200 mg/mL | CCCC(CCC)C(=O)O [Divalproex sodium, sodium hydrogen divalproate] | – |
